The values that follow are results of earlier work, collected in patent publication US20100029771A1, “TREATMENT OF ADDICTIVE DISORDERS” (priority 2008, published 2010).

For data set [1] the following is noted: limited to the first months of treatment.
The conditions of data set [2]: alcoholic subjects; each drug given individually.
For data set [3] the following is noted: clinical trials.

On to `O=C1CC[C@@]2(O)[C@H]3Cc4ccc(O)c5c4[C@@]2(CCN3CC2CC2)[C@H]1O5` [naltrexone], for which, in data set [1], the “duration of benefits on alcohol craving and intake” value is recorded as at most 3 months.
In the case of `NCC(CC(=O)O)c1ccc(Cl)cc1` (stereo not shown) [baclofen, 4-amino-3-(4-chlorophenyl)butanoic acid], the effect on craving result in data set [2] was “reduce craving”. For the same molecule, the effect on anxiety entry in data set [3] (alcoholic and non-alcoholic subjects) was “reduce anxiety”. The side effect entry in data set [3] is reported as “somnolence being an overwhelming side effect”.
